The source of these data is PMC5892710 (Nature chemical biology, 2017).

In this assay the target is T1, Etr1p (Candida tropicalis, UniProt Q8WZM3).
T1 sequence (Q8WZM3 23-386): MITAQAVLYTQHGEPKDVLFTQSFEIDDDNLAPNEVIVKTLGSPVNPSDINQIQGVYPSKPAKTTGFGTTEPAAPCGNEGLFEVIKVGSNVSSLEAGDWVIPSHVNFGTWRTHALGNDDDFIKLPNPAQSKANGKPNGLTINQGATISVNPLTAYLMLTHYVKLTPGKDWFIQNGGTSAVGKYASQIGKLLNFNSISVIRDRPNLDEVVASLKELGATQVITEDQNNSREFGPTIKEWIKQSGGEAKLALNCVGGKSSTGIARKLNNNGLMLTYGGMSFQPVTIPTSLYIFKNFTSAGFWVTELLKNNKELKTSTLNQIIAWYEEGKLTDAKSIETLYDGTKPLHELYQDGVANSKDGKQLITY
The experiment in a line: isothermal titration calorimetry. It counts as binding. Particulars: 150 mM NaCl, 20 mM Tris-HCl pH 7.9; association constant.

`NC(=O)C1=CN([C@@H]2O[C@H](COP(=O)(O)OP(=O)(O)OC[C@H]3O[C@@H](n4cnc5c(N)ncnc54)[C@H](OP(=O)(O)O)[C@@H]3O)[C@@H](O)[C@H]2O)C=CC1` [NADPH]: the binding constant is listed as 3.8 ± 1.0 ·10^5.
